Experimental data: patent publication US7056935B2, “Rotamase enzyme activity inhibitors” (GPI NIL Holdings, Inc., priority 1995, dated 2006)
Like-named read-outs stand apart in the source and are kept apart here.

How the values were obtained:
[1] = tested on: chick dorsal root ganglia (DRG) explants; experiment: Chick dorsal root ganglion cultures and neurite outgrowth; type: cell-based; details: read-out: ED50, nM Neurite Outgrowth in DRG Cultures
Description: Dorsal root ganglia were dissected from chick embryos of ten day gestation. Whole ganglion explants were cultured on thin layer Matrigel-coated 12 well plates with Liebovitz L15 plus high glucose media supplemented with 2 mM glutamine and 10% fetal calf serum, and also containing 10 μM cytosine β-D arabinofuranoside (Ara C) at 37° C. in an environment containing 5% CO2. Twenty-four hours later, the DRGs were treated with various concentrations of nerve growth factor (NGF), immunophilin ligands or combinations of NGF plus drugs. Forty-eight hours after drug treatment, the ganglia were visualized under phase contrast or Hoffman Modulation contrast with a Zeiss Axiovert inverted microscope. Photomicrographs of the explants were made, and neurite outgrowth was quantitated. Neurites longer than the DRG diameter were counted as positive, with total number of neurites quantitated per each experimental condition. Three to four DRGs were cultured per well, and each treatment was performed in duplicate.

FKBP = FKBP (Homo sapiens, UniProt P62942); experiment: Ki test procedure: inhibition of peptidyl-prolyl isomerase (rotamase) activity, chymotrypsin-coupled assay; type: biochemical; details: apparent Ki, substrate N-succinyl-Ala-Phe-Pro-Phe-p-nitroanilide
[2] = drug alone, chick embryo DRG explants, 48 hours after drug treatment

Chain of FKBP (P62942 whole entry): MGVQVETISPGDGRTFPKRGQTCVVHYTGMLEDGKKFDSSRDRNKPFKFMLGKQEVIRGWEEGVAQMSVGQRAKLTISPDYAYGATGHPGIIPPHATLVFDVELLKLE

Row | SMILES | EC50 ([1]; Gallus gallus, 48 h) | further results
1 | COc1cc(C(=O)C(=O)N2CCCCC2C(=O)OCCCCc2ccccc2)cc(OC)c1OC [Compound 14, 4-Phenylbutyl (S)-N-(3,4,5-trimethoxyphenylglyoxyl)pipecolate] | 1 to 5 nM | –
2 | O=C(C(=O)N1CCCCC1C(=O)OCc1ccccc1)c1ccccc1 (centres unmarked) [Compound 1, Benzyl N-(phenylglyoxyl)-2-piperidinecarboxylate] | 25 to 100 nM | –
3 | COc1ccc(CCCCOC(=O)C2CCCCN2C(=O)C(=O)c2ccccc2)cc1 (centres unmarked) [Compound 3] | 0.5 nM | –
4 | CCC(C)(C)C(=O)C(=O)N1CCC[C@H]1C(=O)OC/C=C/c1cc(OC)c(OC)c(OC)c1 [Compound 20, 3-(3,4,5-trimethoxyphenyl)-1-prop-2-(E)-enyl (2S)-1-(3,3-dimethyl-1,2-dioxopentyl)-2-pyrrolidine carboxylate] | 190 nM | Ki (FKBP; Table I): 125 nM
5 | O=C(C(=O)N1CCC[C@H]1C(=O)OCCCc1ccccc1)C1CCCCC1 [Compound 24, 3-Phenyl-1-propyl (2S)-1-(cyclohexylglyoxyl)-2-pyrrolidinecarboxylate] | 0.13 nM | –
6 | COc1ccc(CCCC(CCCc2ccccc2)OC(=O)C2CCCCN2C(=O)C(=O)c2cc(OC)c(OC)c(OC)c2)cc1 [Compound 32, 1-Phenyl-7-(4-methoxyphenyl)-4-heptyl (S)-N-(3,4,5-trimethoxyphenylglyoxyl)-pipecolate] | 0.5 nM | Ki (FKBP; Table II): 3 nM
7 | COc1cc(C(=O)C(=O)N2CCCCC2C(=O)OC(CCCc2ccccc2)CCCc2ccccn2)cc(OC)c1OC [Compound 31, 1-Phenyl-7-(2-pyridyl)-4-heptyl (S)-N-(3,4,5-trimethoxyphenylglyoxyl)pipecolate] | 25 nM | Ki (FKBP; Table II): 1 nM
8 | CCC(C)(C)C(=O)C(=O)N1CCC[C@H]1C(=O)OCCCc1cccnc1 [Compound 23, 3-(3-Pyridyl)-1-propyl (2S)-1-(3,3-dimethyl-1,2-dioxopentyl)-2-pyrrolidinecarboxylate] | 0.05 nM | –
9 | CCC(C)(C)C(=O)C(=O)N1CCC[C@H]1C(=O)OC/C=C/c1cc(OC)ccc1OC [Compound 22, 3-(2,5-Dimethoxyphenyl)-1-prop-2(E)-enyl (2S)-1-(3,3-dimethyl-1,2-dioxopentyl)-2-pyrrolidinecarboxylate] | 0.8 nM | –
10 | CCC(C)(C)C(=O)C(=O)N1CCC[C@H]1C(=O)OC/C=C/c1ccc(Cl)c(Cl)c1 [Compound 21, 3-(4,5-Dichlorophenyl)-1-prop-2-(E)-enyl (2S)-1-(3,3-dimethyl-1,2-dioxopentyl)-2-pyrrolidine carboxylate] | 85 nM | Ki (FKBP; Table I): 2500 nM
11 | COc1cc(C(=O)C(=O)N2CCCCC2C(=O)OC(CCCc2ccccc2)CCCc2ccccc2)cc(OC)c1OC [Compound 29, 1,7-Diphenyl-4-heptyl (S)-N-(3,4,5-trimethoxyphenylglyoxyl)pipecolate] | – | EC50 [1, 2]: 0.61 nM
12 | O=C(C(=O)N1CCCCC1C(=O)OCCCCc1ccccc1)c1ccccc1 (centres unmarked) [Compound 4, 4-Phenyl-1-butyl N-(phenylglyoxyl)-2-piperidinecarboxylate] | 25 to 100 nM | –
13 | O=C(C(=O)N1CCCCC1C(=O)OCCCc1ccccc1)c1ccccc1 (centres unmarked) [Compound 2, 3-Phenyl-1-propyl N-(phenylglyoxyl)-2-piperidinecarboxylate] | 10 to 20 nM | –
14 | CCC(C)(C)C(=O)C(=O)N1CCC[C@H]1C(=O)OC/C=C/c1ccccc1 [Compound 18, 3-phenyl-1-prop-2-(E)-enyl (2S)-1-(3,3-dimethyl-1,2-dioxopentyl)-2-pyrrolidinecarboxylate] | 105 nM | –
15 | CCC(C)(C)C(=O)C(=O)N1CCC[C@H]1C(=O)OCCCc1ccccc1 [Compound 17, 3-phenyl-1-propyl (2S)-1-(3,3-dimethyl-1,2-dioxopentyl)-2-pyrrolidinecarboxylate] | 0.053 nM | –
16 | CCC(C)(C)C(=O)C(=O)N1CCC[C@H]1C(=O)OCCCc1cc(OC)c(OC)c(OC)c1 [Compound 19, 3-(3,4,5-trimethoxyphenyl)-1-propyl (2S)-1-(3,3-dimethyl-1,2-dioxopentyl)-2-pyrrolidine-carboxylate] | 80 nM | Ki (FKBP; Table I): 25 nM
17 | COC(=O)C(=O)N1CCCCC1C(=O)OCc1ccccc1 (centres unmarked) [Compound 7, Benzyl N-(methoxyglyoxyl)-2-piperidinecarboxylate] | > 10000 nM | –
18 | O=C(C(=O)N1CCCCC1C(=O)OCCc1ccccc1)c1ccccc1 (centres unmarked) [Compound 5, 2-Phenyl-1-ethyl N-(phenylglyoxyl)-2-piperidinecarboxylate] | 25 to 100 nM | –
19 | O=C(C(=O)N1CCCCC1C(=O)OC(CCCc1ccccc1)CCCc1ccccc1)c1ccccc1 (centres unmarked) [Compound 28] | – | EC50 [1, 2]: 0.0044 nM
20 | COc1cc(C(=O)C(=O)N2CCCCC2C(=O)OC(CCCc2ccccc2)CCc2cccnc2)cc(OC)c1OC [Compound 30, 1-Phenyl-6-(3-pyridyl)-3-hexyl (S)-N-(3,4,5-trimethoxyphenylglyoxyl)pipecolate] | 0.95 nM | –
21 | COc1ccc(CCCCOC(=O)C2CCCCN2C(=O)C(=O)c2cc(OC)c(OC)c(OC)c2)cc1 [Compound 16, 4-(4-Methoxyphenyl)butyl (S)-N-(3,4,5-trimethoxyphenylglyoxyl)pipecolate] | 0.03 nM | –
